Patent US8354455B2, “Prodrugs containing novel bio-cleavable linkers” (Piramal Enterprises Limited and Apparao Satyam, priority 2004, dated 2013)
“Also recorded” adds a separate entry of the source. Marks after values point to notes of the source that are not given here.

Key:
MES-induced seizures [1] = test: Maximal Electroshock Test (MES), Test 1, mice i.p.; type: in vivo; conditions: for activity in MES model (in words): Test 1, mice i.p.; for MES 0.5 h / MES 4.0 h: symbol = dose with activity; for MES, at 2 hours after dosing: 2 h (footnote h; printed in 4.0 h column)
convulsant metrazol = test: Subcutaneous Metrazol Seizure Threshold Test (scMET), Test 1, mice i.p.; type: in vivo; conditions: for ScMET 0.5 h / ScMET 4.0 h: mice, i.p., symbol = dose with activity
mice = conditions: for toxicity (in words): Test 1, mice i.p.; for Rotorod Toxicity 0.5 h / Rotorod Toxicity 4.0 h: mice, i.p., symbol = dose with toxicity
rats = test: Neurotoxicity, rats p.o. (Test 2 and Test 3); conditions: Test 2, rats p.o.
Excerpt: Acute Toxicity—Minimal Motor Impairment (MMI): To assess a compound's undesirable side effects (toxicity), animals were monitored for overt signs of impaired neurological or muscular function.
Groups of at least 8 rats received various doses of the candidate compound until at least two points were established between the limits of 100 percent protection or toxicity and zero percent protection or minimal toxicity. The 95 percent confidence limits, slopes of the regression lines and standard errors of the slopes were calculated for each quantitative determination. Rats received test compounds orally.
This secondary evaluation determines the time to peak effect (TPE), neurotoxicity, median effective dose (ED50) and biological response.

MES-induced seizures [2] = test: animal or person; type: in vivo, rats; conditions: Test 2, rats p.o., 150 mg/kg
[3] = mice, i.p., 4.0 h, 300 mg/kg (+)

SMILES	activity in MES model (in words) (MES-induced seizures [1])	MES 0.5 h (MES-induced seizures [1]; mice, i.p.)	MES, at 2 hours after dosing (MES-induced seizures [1]; mice, i.p.)	MES 4.0 h (MES-induced seizures [1]; mice, i.p., 4.0 h)	ScMET 0.5 h (convulsant metrazol)	toxicity (in words) (mice)	Rotorod Toxicity 0.5 h (mice)	Rotorod Toxicity 4.0 h (mice)	Toxicity (number of animals exhibiting toxicity/number of animals tested) (rats; 30 mg/kg, 0.50 h)	Toxicity (number of animals exhibiting toxicity/number of animals tested) (rats; 30 mg/kg, 1.00 h)	Toxicity (number of animals exhibiting toxicity/number of animals tested) (rats; 30 mg/kg, 2.00 h)	Toxicity (number of animals exhibiting toxicity/number of animals tested) (rats; 30 mg/kg, 4.00 h)	MES (number of animal protected/number of animal tested) (MES-induced seizures [1]; [3])	ScMET 4.0 h (convulsant metrazol)	also measured
Nc1nc(NC(=O)OCCSSCCOC(=O)c2cccnc2)nnc1-c1cccc(Cl)c1Cl [I-CA-MPD24]	active in MES	— (— = no activity or no toxicity at 300 mg/kg)	++ (++ = activity or toxicity at 100 mg/kg)	++ (++ = activity or toxicity at 100 mg/kg)	— (— = no activity or no toxicity at 300 mg/kg)	non-toxic; also recorded: no or mild toxicity	— (— = no activity or no toxicity at 300 mg/kg)	— (— = no activity or no toxicity at 300 mg/kg)	0/4	0/4	0/4	0/4	–	–	MES (number of animal protected/number of animal tested) (MES-induced seizures [1]; mice, i.p., 2 h after dosing, 100 mg/kg (++)): (3/3)^h; MES, at 6 hours after dosing (MES-induced seizures [1]; mice, i.p., 6 h (footnotes g, m; printed in 4.0 h column)): ++ (++ = activity or toxicity at 100 mg/kg); MES (number of animal protected/number of animal tested) (MES-induced seizures [1]; mice, i.p., 6 h after dosing, 100 mg/kg (++)): (3/3)^m; activity in scMET model (in words) (convulsant metrazol; Test 1, mice i.p.): active
Cl.Nc1nc(NC(=O)OCCSSCCNC(=O)c2cccnc2)nnc1-c1cccc(Cl)c1Cl [I-CA-MPD25]	active in MES	–	–	–	— (— = no activity or no toxicity at 300 mg/kg)	no or mild toxicity	— (— = no activity or no toxicity at 300 mg/kg)	— (— = no activity or no toxicity at 300 mg/kg)	0/4	0/4	0/4	0/4	(1/1)	— (— = no activity or no toxicity at 300 mg/kg)	–
CCCC(CCC)C(=O)OCCSSCCOC(=O)Nc1nnc(-c2cccc(Cl)c2Cl)c(N)n1 [I-CA-MPD23]	active in MES	— (— = no activity or no toxicity at 300 mg/kg)	++ (++ = activity or toxicity at 100 mg/kg)	+ (+ = activity or toxicity at 300 mg/kg)	— (— = no activity or no toxicity at 300 mg/kg)	no or mild toxicity	–	–	–	–	–	–	(1/3)	— (— = no activity or no toxicity at 300 mg/kg)	MES (number of animal protected/number of animal tested) (MES-induced seizures [2]; 4.00 h): 4/4; MES (number of animal protected/number of animal tested) (MES-induced seizures [2]; 6.00 h): 4/4; MES (number of animal protected/number of animal tested) (MES-induced seizures [2]; 8.00 h): 4/4; Toxicity (number of animals exhibiting toxicity/number of animals tested) (rats; 150 mg/kg, 2.00 h): 0/4; Toxicity (number of animals exhibiting toxicity/number of animals tested) (rats; 150 mg/kg, 4.00 h): 0/4; Toxicity (number of animals exhibiting toxicity/number of animals tested) (rats; 150 mg/kg, 6.00 h): 0/4; Toxicity (number of animals exhibiting toxicity/number of animals tested) (rats; 150 mg/kg, 8.00 h): 0/4
CS(=O)(=O)NC(=O)OCCSSCCOC(=O)Nc1nnc(-c2cccc(Cl)c2Cl)c(N)n1 [I-A1-PD15]	active in MES	–	–	–	— (— = no activity or no toxicity at 300 mg/kg)	no or mild toxicity	–	–	0/4	0/4	0/4	0/4	(1/1)	— (— = no activity or no toxicity at 300 mg/kg)	–
